Source: patent US11006626B2, “Compounds for protection of cells” (Sulfateq B.V., priority 2012, dated 2021)

Tests used:
apherese blood platelets = experiment: Apheresis platelets stored with Sul 136, platelet activation with ADP and TRAP by flow cytometry (CD62p); type: cell-based; parameters: Flow cytometry ADP / Flow cytometry TRAP: unit not given here; settings: for Flow cytometry ADP / Flow cytometry P-selectin MFI / Flow cytometry TRAP: stored at 4° C. with Sul 136
Protocol: 300 μM suspension of Sul 136 is added with a procedure, which keeps the bag content sterile and the Sul 136 is kept in suspension by frequent whirling and stored at 37° C. before it is added to the freshly harvested platelets. The Sul 136 suspension is added to three platelet bags directly from the bag. After addition, the content of the platelet bag is gently mixed. After 2 hours the first sample is drawn with a seal-docked sample bag. The sample bag is disconnected by welding and from this sample bag the samples are taken for hematology analyzing, aggregometer tests and the flow-cytometry tests. Swirling in the bag is reported by experience of the laboratory worker in the standard format. Platelets without Sul 136 put on a flatbed shaker and stored at room temperature were used as control. Another control is stored at 4° C. Platelet samples in which Sul 136 is added, are stored without shaking in a refrigerator at 4° C.
Platelet activation was performed on a Beckman Coulter FC 500 flowcytometer using CD 41 PE, CD 62p FITC, IgG1 FITC/IgG1 PE antibodies of a Beckman Coulter kit.
40 μl Dilution buffer was brought in about 15 minutes to 37° C.; 10 μl IgG FITC/IgG PE+10 μl CD41 PE was added and mixed with Vortex, incubated 5 min at room temperature; 1000 μl cold HBSS buffer was added; measurement in flowcytometer was performed.
40 μl Dilution buffer was brought in about 15 minutes to 37° C.; 10 μl CD41 PE+5 μl CD62 FITC was added and mixed with Vortex, incubated during 5 min. at room temperature; 1000 μl cold HBSS buffer was added; measurement in flowcytometer was performed.
36 μl Dilution buffer+4 μl ADP was brought in about 15 minutes to 37° C.; 10 μl CD41 PE+5 μl CD62 FITC was added and mixed with Vortex, incubated during 5 min. at room temperature; 1000 μl cold HBSS buffer was added; measurement in flowcytometer was performed.
36 μl Dilution buffer+4 μl TRAP was brought in about 15 minutes to 37° C.; 10 μl CD41 PE+5 μl CD62 FITC was added and mixed with Vortex; incubateed during 5 min. at room temperature; 1000 μl cold HBSS buffer was added; measurement in flowcytometer was performed.

PRP platelets = PRP platelets stored with Sul 136, aggregation after stimulation with collagen; type: cell-based; parameters: key: +means that the cells show aggregation and can thus be activated upon stimulation; −means no aggregation upon stimulation
Protocol: […] • The color and coagulation properties were visually analysed. • The thrombocyte cells that survived were counted and it was evaluated whether the thrombocytes were aggregated. • It was evaluated if the thrombocytes still were able to function after stimulation by the addition of ADP or under influence of collagen in a 96 well plate. • The adhesion was evaluated, meaning the ability of the platelets to bind collagen in a 6 well plate preincubated with collagen. • Via an ELISA assay, it was evaluated whether thromboxane was secreted from the platelets. Thromboxane facilitates aggregation and is produced by activated blood platelets.
(+means that the cells show aggregation, ++means strong aggregation, these platelets can thus be activated upon stimulation, −means no aggregation upon stimulation)

For `Cc1c(C)c2c(c(C)c1O)CCC(C)(C(=O)N1CCN(CC(=O)O)CC1)O2` (racemic) [SUL - 136, 2-(4-(6-hydroxy-2,5,7,8-tetramethylchroman-2-carbonyl)piperazin-1-yl)acetic acid], the “Flow cytometry ADP” value (apherese blood platelets; Donor 2, Day 1) was 2.12, the “Flow cytometry P-selectin MFI” value (apherese blood platelets; Donor 2, Day 1) was 1.67 MFI and the “Flow cytometry TRAP” value (apherese blood platelets; Donor 2, Day 1) was 1.88. For the same compound, the “Flow cytometry ADP” value (apherese blood platelets; Donor 2, Day 2) was 2.53, the “Flow cytometry P-selectin MFI” value (apherese blood platelets; Donor 2, Day 2) was 2.13 MFI and the “Flow cytometry TRAP” value (apherese blood platelets; Donor 2, Day 2) was 2.35. The “Flow cytometry ADP” value (apherese blood platelets; Donor 2, Day 3) was 3.21, the “Flow cytometry P-selectin MFI” value (apherese blood platelets; Donor 2, Day 3) was 2.59 MFI and the “Flow cytometry TRAP” value (apherese blood platelets; Donor 2, Day 3) was 2.76. For the same compound, the “Flow cytometry ADP” value (apherese blood platelets; Donor 2, Day 5) was 3.19, the “Flow cytometry P-selectin MFI” value (apherese blood platelets; Donor 2, Day 5) was 2.95 MFI and the “Flow cytometry TRAP” value (apherese blood platelets; Donor 2, Day 5) was 3.16. The “Flow cytometry ADP” value (apherese blood platelets; Donor 2, Day 8) was 3.08, the “Flow cytometry P-selectin MFI” value (apherese blood platelets; Donor 2, Day 8) was 2.99 MFI and the “Flow cytometry TRAP” value (apherese blood platelets; Donor 2, Day 8) was 3.22. For the same compound, the “Flow cytometry ADP” value (apherese blood platelets; Donor 2, Day 10) was 2.83, the “Flow cytometry P-selectin MFI” value (apherese blood platelets; Donor 2, Day 10) was 2.76 MFI and the “Flow cytometry TRAP” value (apherese blood platelets; Donor 2, Day 10) was 2.96. The “Flow cytometry ADP” value (apherese blood platelets; Donor 2, Day 12) was 2.62, the “Flow cytometry P-selectin MFI” value (apherese blood platelets; Donor 2, Day 12) was 2.63 MFI and the “Flow cytometry TRAP” value (apherese blood platelets; Donor 2, Day 12) was 2.73. For the same compound, the “Flow cytometry ADP” value (apherese blood platelets; Donor 2, Day 19) was 1.99, the “Flow cytometry P-selectin MFI” value (apherese blood platelets; Donor 2, Day 19) was 2.01 MFI and the “Flow cytometry TRAP” value (apherese blood platelets; Donor 2, Day 19) was 2.14. For the same compound, the “Flow cytometry ADP” value (apherese blood platelets; Donor 3, Day 1) was 2.71, the “Flow cytometry P-selectin MFI” value (apherese blood platelets; Donor 3, Day 1) was 1.90 MFI and the “Flow cytometry TRAP” value (apherese blood platelets; Donor 3, Day 1) was 2.08. The “Flow cytometry ADP” value (apherese blood platelets; Donor 3, Day 2) was 3.49, the “Flow cytometry P-selectin MFI” value (apherese blood platelets; Donor 3, Day 2) was 2.82 MFI and the “Flow cytometry TRAP” value (apherese blood platelets; Donor 3, Day 2) was 3.62. The “Flow cytometry ADP” value (apherese blood platelets; Donor 3, Day 3) was 4.96, the “Flow cytometry P-selectin MFI” value (apherese blood platelets; Donor 3, Day 3) was 3.84 MFI and the “Flow cytometry TRAP” value (apherese blood platelets; Donor 3, Day 3) was 4.42. For the same compound, the “Flow cytometry ADP” value (apherese blood platelets; Donor 3, Day 5) was 4.84, the “Flow cytometry P-selectin MFI” value (apherese blood platelets; Donor 3, Day 5) was 4.50 MFI and the “Flow cytometry TRAP” value (apherese blood platelets; Donor 3, Day 5) was 5.04. The “Flow cytometry ADP” value (apherese blood platelets; Donor 3, Day 8) was 4.91, the “Flow cytometry P-selectin MFI” value (apherese blood platelets; Donor 3, Day 8) was 4.82 MFI and the “Flow cytometry TRAP” value (apherese blood platelets; Donor 3, Day 8) was 5.24. The “Flow cytometry ADP” value (apherese blood platelets; Donor 3, Day 10) was 4.25, the “Flow cytometry P-selectin MFI” value (apherese blood platelets; Donor 3, Day 10) was 4.37 MFI and the “Flow cytometry TRAP” value (apherese blood platelets; Donor 3, Day 10) was 5.04. For the same compound, the “Flow cytometry ADP” value (apherese blood platelets; Donor 3, Day 12) was 3.84, the “Flow cytometry P-selectin MFI” value (apherese blood platelets; Donor 3, Day 12) was 3.89 MFI and the “Flow cytometry TRAP” value (apherese blood platelets; Donor 3, Day 12) was 4.20. For the same compound, the “Flow cytometry ADP” value (apherese blood platelets; Donor 3, Day 19) was 2.37, the “Flow cytometry P-selectin MFI” value (apherese blood platelets; Donor 3, Day 19) was 2.22 MFI and the “Flow cytometry TRAP” value (apherese blood platelets; Donor 3, Day 19) was 2.01. The “Flow cytometry ADP” value (apherese blood platelets; donor 1, Day 1) was 3.07, the “Flow cytometry P-selectin MFI” value (apherese blood platelets; donor 1, Day 1) was 2.09 MFI and the “Flow cytometry TRAP” value (apherese blood platelets; donor 1, Day 1) was 3.57. The “Flow cytometry ADP” value (apherese blood platelets; donor 1, Day 2) was 3.28, the “Flow cytometry P-selectin MFI” value (apherese blood platelets; donor 1, Day 2) was 3.04 MFI and the “Flow cytometry TRAP” value (apherese blood platelets; donor 1, Day 2) was 3.78. For the same compound, the “Flow cytometry ADP” value (apherese blood platelets; donor 1, Day 3) was 4.12, the “Flow cytometry P-selectin MFI” value (apherese blood platelets; donor 1, Day 3) was 3.73 MFI and the “Flow cytometry TRAP” value (apherese blood platelets; donor 1, Day 3) was 4.95. For the same compound, the “Flow cytometry ADP” value (apherese blood platelets; donor 1, Day 5) was 4.20, the “Flow cytometry P-selectin MFI” value (apherese blood platelets; donor 1, Day 5) was 4.12 MFI and the “Flow cytometry TRAP” value (apherese blood platelets; donor 1, Day 5) was 5.55. For the same compound, the “Flow cytometry ADP” value (apherese blood platelets; donor 1, Day 8) was 4.83, the “Flow cytometry P-selectin MFI” value (apherese blood platelets; donor 1, Day 8) was 4.82 MFI and the “Flow cytometry TRAP” value (apherese blood platelets; donor 1, Day 8) was 5.52. The “Flow cytometry ADP” value (apherese blood platelets; donor 1, Day 10) was 4.46, the “Flow cytometry P-selectin MFI” value (apherese blood platelets; donor 1, Day 10) was 4.48 MFI and the “Flow cytometry TRAP” value (apherese blood platelets; donor 1, Day 10) was 5.52. For the same compound, the “Flow cytometry ADP” value (apherese blood platelets; donor 1, Day 12) was 4.43, the “Flow cytometry P-selectin MFI” value (apherese blood platelets; donor 1, Day 12) was 4.57 MFI and the “Flow cytometry TRAP” value (apherese blood platelets; donor 1, Day 12) was 4.42. For the same compound, the “Flow cytometry ADP” value (apherese blood platelets; donor 1, Day 19) was 2.74, the “Flow cytometry P-selectin MFI” value (apherese blood platelets; donor 1, Day 19) was 2.92 MFI and the “Flow cytometry TRAP” value (apherese blood platelets; donor 1, Day 19) was 2.76. The flow cytometry tests (apherese blood platelets; stored at 4° C. with compound vs. platelets stored at room temperature) was “similar”, the “aggregation of the PRP platelets after stimulation with collagen” value (shortened to “aggregation of the PRP platelets”) (PRP platelets; 10 min 0.001 mM, 24 h) was “−” and the “aggregation of the PRP platelets” value (PRP platelets; 10 min 0.001 mM, 48 h) was “−”. For the same compound, the “aggregation of the PRP platelets” value (PRP platelets; 10 min 0.001 mM, 72 h) was “−”, the “aggregation of the PRP platelets” value (PRP platelets; 10 min 0.001 mM, 216 h) was “−” and the “aggregation of the PRP platelets” value (PRP platelets; 10 min 0.01 mM, 24 h) was “−”. The “aggregation of the PRP platelets” value (PRP platelets; 10 min 0.01 mM, 48 h) was “−”, the “aggregation of the PRP platelets” value (PRP platelets; 10 min 0.01 mM, 72 h) was “−” and the “aggregation of the PRP platelets” value (PRP platelets; 10 min 0.01 mM, 216 h) was “−”. For the same compound, the “aggregation of the PRP platelets” value (PRP platelets; 10 min 0.1 mM, 48 h) was “−”, the “aggregation of the PRP platelets” value (PRP platelets; 10 min 0.1 mM, 72 h) was “−” and the “aggregation of the PRP platelets” value (PRP platelets; 10 min 0.1 mM, 216 h) was “−”. The “aggregation of the PRP platelets” value (PRP platelets; 10 min 1 mM, 48 h) was “−”, the “aggregation of the PRP platelets” value (PRP platelets; 60 min 0.001 mM, 24 h) was “−” and the “aggregation of the PRP platelets” value (PRP platelets; 60 min 0.001 mM, 48 h) was “−”. For the same compound, the “aggregation of the PRP platelets” value (PRP platelets; 60 min 0.001 mM, 72 h) was “−”, the “aggregation of the PRP platelets” value (PRP platelets; 60 min 0.001 mM, 216 h) was “−” and the “aggregation of the PRP platelets” value (PRP platelets; 60 min 0.01 mM, 24 h) was “−”. The “aggregation of the PRP platelets” value (PRP platelets; 60 min 0.01 mM, 48 h) was “−”, the “aggregation of the PRP platelets” value (PRP platelets; 60 min 0.01 mM, 72 h) was “−” and the “aggregation of the PRP platelets” value (PRP platelets; 60 min 0.01 mM, 216 h) was “−”. For the same compound, the “aggregation of the PRP platelets” value (PRP platelets; 60 min 0.1 mM, 24 h) was “−”, the “aggregation of the PRP platelets” value (PRP platelets; 60 min 0.1 mM, 48 h) was “−” and the “aggregation of the PRP platelets” value (PRP platelets; 60 min 0.1 mM, 72 h) was “−”. For the same compound, the “aggregation of the PRP platelets” value (PRP platelets; 60 min 0.1 mM, 216 h) was “−”, the “aggregation of the PRP platelets” value (PRP platelets; 60 min 1 mM, 24 h) was “−” and the “aggregation of the PRP platelets” value (PRP platelets; 60 min 1 mM, 48 h) was “−”. For the same compound, the “aggregation of the PRP platelets” value (PRP platelets; 60 min 1 mM, 72 h) was “−” and the “aggregation of the PRP platelets” value (PRP platelets; 60 min 10 mM, 216 h) was “−”.
